Laboratory results published in patent US9801850B2, “Antibacterial agent” (OSAKA UNIVERSITY, priority 2009, dated 2017).
Converted amounts (≈) assume the structure as drawn.

Experiments:
MSSA ATCC25923 [1] = assay: MIC with addition of PG, LPS or D-Ala-D-Ala (Example 3); type: cell-based, Staphylococcus aureus; conditions: for MIC: MSSA (ATCC25923); for change in MIC by the addition of PG: MSSA ATCC25923, PG 30 μg/ml
Procedure: (§1) Regarding EGCG-C16, whether or not the antibacterial action thereof against MSSA and MRSA is inhibited by the addition of: peptidoglycan (PG) or D-Ala-D-Ala, which are each a cell wall component; or lipopolysaccharide (LPS), which is an outer membrane component, was examined. The MIC measurement was carried out in the manner described in Section (2) of Example 2.
(§2) In Example 3, EGCG-C16 prepared in Example 1 was used as an antibacterial agent. In Comparative Example 3, unsubstituted EGCG was used as an antibacterial agent. […] Antibacterial agent solutions of EGCG-C16 and EGCG were prepared in the same manner as described in Section (2) of Example 1. Antibacterial agent solutions of the antibacterial agents other than EGCG-C16 and EGCG were prepared by dissolving them in PBS.
(§3) As additives, PG (Peptidoglycan Staphylococcus aureus, SIGMA-ALDRICH), D-Ala-D-Ala (SIGMA-ALDRICH), and LPS (Lipopolysaccharide Salmonella, SIGMA-ALDRICH) were provided. Each of the additives was dissolved in PBS, and the resultant solution was used as an additive solution.
(§4) Dilution series of the antibacterial agent solutions were prepared. Each of them was dispensed to a 96-well plate. Further, the additive solution was added thereto and mixed. After that, a bacterial culture solution of MRSA ATCC43300 or MSSA ATCC25923 was added thereto and cultured at 37° C. for 18 hours. In the mixture of the antibacterial agent solution, the additive solution, and the bacterial culture solution, the final concentrations of PG, D-Ala-D-Ala, and LPS were each set to 30 μg/ml. Unless otherwise stated, the minimum inhibitory concentration (MIC) was calculated in the same manner as described in Section (2) of Example 2.

MRSA ATCC43300 [2] = assay: as above; type: cell-based, Staphylococcus aureus; conditions: for MIC: MRSA (ATCC43300); for change in MIC by the addition of PG: MRSA ATCC43300, PG 30 μg/ml
Procedure: as §1, §2, §3, §4

[3] = tested on: methicillin-resistant Staphylococcus aureus (MRSA) ATCC43300; assay: MIC, broth microdilution (Example 1); type: cell-based; conditions: for MIC: MRSA ATCC43300, MH-broth, 37° C., 18 hours
Procedure: (§5) Methicillin-susceptible Staphylococcus aureus (MSSA) NCTC8325 and methicillin-resistant Staphylococcus aureus (MRSA) ATCC43300 were used as bacteria. The bacteria of each type were cultured using Mueller-Hinton Broth (MH-broth, Difco) as a medium. Then, the minimum inhibitory concentration (MIC) of each of the EGCG derivatives was measured by a broth microdilution method in accordance with the Clinical and Laboratory Standards Institute (CLSI) guidelines (hereinafter the same).
(§6) First, each of the EGCG derivatives was dissolved in 100% dimethyl sulfoxide (DMSO, Wako Pure Chemical Industries, Ltd.) so that the concentration thereof became 5120 μg/ml. The resultant solution was diluted with DMSO or sterile distilled water so as to prepare two-fold dilution series of antibacterial agent solutions. […] Each of these antibacterial agent solutions was dispensed to wells of a 96-well plate. The concentration of the EGCG derivative in the antibacterial agent solution dispensed to the wells was set to be 10 times as high as the final concentration. On the other hand, the bacteria were cultured in the MH-broth at 37° C. overnight, and the thus-obtained pre-culture solution was diluted with a new MH-broth so that the concentration thereof in the MH-broth became 10^−4 (10^4-fold dilution), thus preparing a bacterial culture solution of about 1×10^5 CFU/ml (CFU: Colony Forming Unit, the number of viable cells). The bacterial culture solution was further added to each well, and the mixture was cultured at 37° C. for 18 hours. The ratio (volume ratio) between the antibacterial agent solution and the bacterial culture solution added to each well was set to 1:9 (the antibacterial agent solution:the bacterial culture solution), and the volume of the mixture of them per well was set to 100 μl in total. The final concentration of the EGCG derivative in the mixture was set to 8 μg/ml to 512 μg/ml, and the number of viable cells in the mixture was set to about 1×10^5 CFU/ml. Then, after the completion of the culture, the MIC was determined. Also, the turbidity (OD600 nm) was measured using a plate reader so as to identify minor differences.
(§7) As Comparative Example 1, the same procedures as in Example 1 were performed, except that unsubstituted EGCG was used as an antibacterial agent instead of the EGCG derivatives of Example 1. Furthermore, as a control, the same procedures as in Example 1 were performed, except that sterile distilled water, 100% DMSO, or 50% DMSO was used instead of the antibacterial agent solutions containing the EGCG derivatives.

[4] = tested on: Methicillin-susceptible Staphylococcus aureus (MSSA) NCTC8325; assay: MIC, broth microdilution (Example 1); type: cell-based; conditions: MH-broth, 37° C., 18 hours
Procedure: as §5, §6, §7

MRSA ATCC43300 [5] = assay: Membrane damaging properties, SYTOX Green fluorescence (Example 4); type: cell-based, Staphylococcus aureus; conditions: 37° C., 15 minutes, EGCG derivative 4-32, EGCG 8-128, NISIN 1-8 μg/ml, FIG. 3
Procedure: (§8) As an antibacterial agent, the EGCG-C16 prepared in Example 1 was used in Example 4; EGCG was used in Comparative Example 4; and membrane-damaging peptide NISIN (MP Biomedicals) was used in a reference example. Antibacterial agent solutions of EGCG-C16 and EGCG were prepared by dissolving them in DMSO so as to achieve top concentrations, respectively. An antibacterial agent solution of the other antibacterial agent was prepared by dissolving it in PBS and diluted with PBS as appropriate. The influence of DMSO used for dissolving the antibacterial agents also was considered.
MSSA ATCC25923 and MRSA ATCC43300 were subjected to shaking culture in MH-broths (Difco) until they reached a late stage in the exponential growth phase. The thus-obtained culture solutions were each centrifuged at 7000 rpm for 10 minutes, and bacterial cells that had settled were suspended in PBS. The suspension of the bacterial cells was added to wells of a 384 black plate, and each of the antibacterial agent solutions was further added thereto and mixed. The resultant mixture was incubated at 37° C. for 15 minutes. Subsequently, a dead cell-staining dye (trade name “SYTOX Green”, LONZA) was mixed in each well so that the concentration thereof became 10 μmol/l, and the resultant mixture was incubated at 37° C. for 10 minutes. The final concentrations of the respective antibacterial agents were as follows: 4, 8, 16, and 32 μg/ml for the EGCG derivative; 8, 16, 32, 64, and 128 μg/ml for EGCG; and 1, 2, 4, and 8 μg/ml for NISIN. […] On the other hand, as a control, the fluorescence intensity was measured in the same manner, except that PBS or 10% DMSO was added instead of the antibacterial agent solutions. Then, regarding each of the MSSA and MRSA, the ratio of the fluorescence intensity when each of the agents was added was calculated assuming that the fluorescence intensity obtained in the control (PBS) was 1.

MSSA ATCC25923 [6] = assay: as above; type: cell-based, Staphylococcus aureus; conditions: 37° C., 15 minutes, EGCG derivative 4-32, EGCG 8-128, NISIN 1-8 μg/ml, FIG. 3
Procedure: as §8
MSSA ATCC25923 and MRSA ATCC43300 were subjected to shaking culture in MH-broths (Difco) until they reached a late stage in the exponential growth phase. The thus-obtained culture solutions were each centrifuged at 7000 rpm for 10 minutes, and bacterial cells that had settled were suspended in PBS. The suspension of the bacterial cells was added to wells of a 384 black plate, and each of the antibacterial agent solutions was further added thereto and mixed. The resultant mixture was incubated at 37° C. for 15 minutes. Subsequently, a dead cell-staining dye (trade name “SYTOX Green”, LONZA) was mixed in each well so that the concentration thereof became 10 μmol/l, and the resultant mixture was incubated at 37° C. for 10 minutes. […] On the other hand, as a control, the fluorescence intensity was measured in the same manner, except that PBS or 10% DMSO was added instead of the antibacterial agent solutions. Then, regarding each of the MSSA and MRSA, the ratio of the fluorescence intensity when each of the agents was added was calculated assuming that the fluorescence intensity obtained in the control (PBS) was 1.

[7] = +D-Ala-D-Ala (30 μg/mL), lower part of Table 9
[8] = +LPS (30 μg/mL), upper part of Table 9
[9] = +PG (30 μg/mL), lower part of Table 9 (PG/D-Ala-D-Ala series)
[10] = MH-broth free of additives, lower part of Table 9 (PG/D-Ala-D-Ala series)
[11] = MH-broth free of additives, upper part of Table 9 (PG/LPS series)
[12] = +PG (30 μg/mL), upper part of Table 9 (PG/LPS series)

Row | Compound | MIC (MSSA ATCC25923 [1]; [7]) | MIC (MSSA ATCC25923 [1]; [8]) | MIC (MSSA ATCC25923 [1]; [9]) | MIC (MSSA ATCC25923 [1]; [10]) | MIC (MSSA ATCC25923 [1]; [11]) | MIC (MRSA ATCC43300 [2]; [7]) | MIC (MRSA ATCC43300 [2]; [8]) | MIC (MRSA ATCC43300 [2]; [9]) | MIC (MRSA ATCC43300 [2]; [12]) | MIC (MRSA ATCC43300 [2]; [10]) | MIC (MRSA ATCC43300 [2]; [11]) | other results
1 | CC1(C)S[C@@H]2[C@H](NC(=O)[C@H](N)c3ccccc3)C(=O)N2[C@H]1C(=O)O [ABPC, ampicillin] | 0.25 µg/mL (≈ 0.715 µM) | 0.25 µg/mL (≈ 0.715 µM) | 0.25 µg/mL (≈ 0.715 µM) | 0.25 µg/mL (≈ 0.715 µM) | 0.25 µg/mL (≈ 0.715 µM) | 16 µg/mL (≈ 45.8 µM) | 32 µg/mL (≈ 91.6 µM) | 8 µg/mL (≈ 22.9 µM) | 32 µg/mL (≈ 91.6 µM) | 16 µg/mL (≈ 45.8 µM) | 32 µg/mL (≈ 91.6 µM) | –
2 | CN[C@H](CC(C)C)C(=O)N[C@H]1C(=O)N[C@@H](CC(N)=O)C(=O)N[C@H]2C(=O)N[C@H]3C(=O)N[C@H](C(=O)N[C@H](C(=O)O)c4cc(O)cc(O)c4-c4cc3ccc4O)[C@H](O)c3ccc(c(Cl)c3)Oc3cc2cc(c3O[C@@H]2O[C@H](CO)[C@@H](O)[C@H](O)[C@H]2O[C@H]2C[C@](C)(N)[C@H](O)[C@H](C)O2)Oc2ccc(cc2Cl)[C@H]1O [VCM, vancomycin] | 16 µg/mL (≈ 11 µM) | 2 µg/mL (≈ 1.38 µM) | 2 µg/mL (≈ 1.38 µM) | 1 µg/mL (≈ 0.69 µM) | 2 µg/mL (≈ 1.38 µM) | 16 µg/mL (≈ 11 µM) | 2 µg/mL (≈ 1.38 µM) | 2 µg/mL (≈ 1.38 µM) | 4 µg/mL (≈ 2.76 µM) | 1 µg/mL (≈ 0.69 µM) | 2 µg/mL (≈ 1.38 µM) | MIC (MSSA ATCC25923 [1]; [12]): 4 µg/mL (≈ 2.76 µM); change in MIC by the addition of PG (MSSA ATCC25923 [1]): doubled; change in MIC by the addition of PG (MRSA ATCC43300 [2]): doubled
3 | EGCG-eicosanoate [EGCG-C20] | – | – | – | – | – | – | – | – | – | – | – | MIC [3]: 128 µg/mL
4 | EGCG-laurate [EGCG-C12] | – | – | – | – | – | – | – | – | – | – | – | MIC [4]: 8 µg/mL; MIC [3]: 16 µg/mL; inhibition of propagation (MIC, turbidity OD600 nm) ([3]; MRSA, FIG. 1 and Table 3): remarkable propagation-inhibiting effect
5 | EGCG-octanonate [EGCG-C8] | – | – | – | – | – | – | – | – | – | – | – | MIC [4]: 8 µg/mL
6 | NISIN [reference compound] | – | – | – | – | – | – | – | – | – | – | – | fluorescence intensity ratio of SYTOX Green (control PBS = 1) (MRSA ATCC43300 [5]): very high fluorescence intensity ratio; fluorescence intensity ratio of SYTOX Green (control PBS = 1) (MSSA ATCC25923 [6]): very high fluorescence intensity ratio
7 | teicoplanin | 32 µg/mL | 1 µg/mL | 2 µg/mL | 1 µg/mL | 1 µg/mL | 16 µg/mL | 1 µg/mL | 1 µg/mL | 1 µg/mL | 0.5 µg/mL | 0.5 µg/mL | MIC (MSSA ATCC25923 [1]; [12]): 2 µg/mL; change in MIC by the addition of PG (MSSA ATCC25923 [1]): doubled; change in MIC by the addition of PG (MRSA ATCC43300 [2]): doubled
